From article PMC4297708 (Drug and alcohol dependence, 2014)
“Also recorded” adds a separate entry of the source. Like-named read-outs stand apart in the source and are kept apart here.

How the values were obtained:
[1] = target: T1, dopamine transporter (DAT) (Rattus norvegicus, UniProt P23977); test: biochemical; settings: for DA/5-HT Ratio: ratio of release potencies
[2] = system: vesicular monoamine transporter 2 (VMAT2); settings: measured with Tyramine, ref Partilla et al., 2006, cited from earlier work; for EC50: read-out: VMAT2 Release EC50
[3] = target: T1, dopamine transporter (DAT); test: DAT uptake inhibition assay; format: biochemical
[4] = cited from earlier work
mice [5] = settings: cited from earlier work
CB1Rs = settings: increased efficacy of CP 55940 in calcium mobilization; ref Navarro et al., 2009; cited from earlier work
[6] = target: T1, dopamine transporter (DAT); settings: read-out: DAT UI IC50; rat brain synaptosomes; ref Yu et al., 2000; cited from earlier work
SERT [7] = target: T2, SERT (Rattus norvegicus, UniProt P31652); settings: read-out: 5-HT Release EC50; rat brain synaptosomes; ref Yu et al., 2000; cited from earlier work
rats [8] = settings: ref Rothman et al., 2005; cited from earlier work
[9] = compared to amphetamine; ref Rothman et al., 2005; cited from earlier work
SERT [10] = target: T2, SERT; test: 5-HT release assay in synaptosomes; format: biochemical; settings: read-out: 5-HT Release EC50; rat brain synaptosomes; mean ± SD, n=3; Table 4
rats [11] = test: In vivo microdialysis in the n. accumbens; settings: male rats, 1 or 3 mg/kg i.v.; for extracellular (dialysate) DA in n. accumbens: Fig. 7, Fig. 8
rats [12] = test: Horizontal locomotor activity; format: in vivo; settings: male rats, 1 or 3 mg/kg i.v.; Fig. 7, Fig. 8
rats [13] = settings: ref Hiranita et al., cited from earlier work; for effect on cocaine self-administration dose-effect curve: rats, 2014
rats [14] = settings: ref Hiranita et al., 2014; cited from earlier work
rats [15] = settings: rats trained to discriminate cocaine from saline; ref Carroll et al., 2004; cited from earlier work
sigma receptors = settings: ref Hiranita et al., 2014; cited from earlier work
DAT = settings: highest dose studied, 56 mg/kg; ref Hiranita et al., 2014; cited from earlier work
mice [16] = settings: range of behaviorally active doses, ref Carroll et al., 2004; cited from earlier work
rats [17] = settings: ref Katz et al., 1999b; cited from earlier work
DAT Y335A = settings: ref Loland et al., 2008; cited from earlier work
mice [18] = settings: mice trained to discriminate cocaine (10 mg/kg) from saline; ref Loland et al. 2012; cited from earlier work
[19] = ref Loland et al., 2012; cited from earlier work
human = settings: humans; ref Dackis et al., 2003; Malcolm et al., 2006; Hart et al., 2008; cited from earlier work
[20] = read-out: DAT UI IC50, rat brain synaptosomes, mean ± SD, n=3, Table 3
[21] = rat brain synaptosomes, % maximal release, Table 3
[22] = read-out: DA Release EC50, rat brain synaptosomes, mean ± SD, n=3, Table 3
[23] = rat brain synaptosomes, Table 4
[24] = read-out: DA Release EC50, rat brain synaptosomes, mean ± SD, n=3, Table 4

T2 sequence (P31652 whole entry): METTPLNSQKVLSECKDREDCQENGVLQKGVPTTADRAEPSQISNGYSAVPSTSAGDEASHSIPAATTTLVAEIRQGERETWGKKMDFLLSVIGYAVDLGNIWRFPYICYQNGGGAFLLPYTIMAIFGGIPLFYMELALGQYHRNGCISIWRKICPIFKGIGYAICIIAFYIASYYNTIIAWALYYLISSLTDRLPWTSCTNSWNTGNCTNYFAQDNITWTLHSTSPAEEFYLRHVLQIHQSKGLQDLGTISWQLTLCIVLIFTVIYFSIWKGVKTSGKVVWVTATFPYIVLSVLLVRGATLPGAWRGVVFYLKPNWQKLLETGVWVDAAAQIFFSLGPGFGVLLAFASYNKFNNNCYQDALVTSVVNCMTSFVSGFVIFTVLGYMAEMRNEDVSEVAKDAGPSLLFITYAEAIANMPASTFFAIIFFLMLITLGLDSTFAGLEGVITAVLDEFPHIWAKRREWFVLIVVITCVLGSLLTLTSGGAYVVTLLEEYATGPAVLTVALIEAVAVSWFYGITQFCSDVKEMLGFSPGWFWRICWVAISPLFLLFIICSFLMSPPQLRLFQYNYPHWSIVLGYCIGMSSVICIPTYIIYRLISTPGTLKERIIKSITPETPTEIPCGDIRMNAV
T1 sequence (P23977 whole entry): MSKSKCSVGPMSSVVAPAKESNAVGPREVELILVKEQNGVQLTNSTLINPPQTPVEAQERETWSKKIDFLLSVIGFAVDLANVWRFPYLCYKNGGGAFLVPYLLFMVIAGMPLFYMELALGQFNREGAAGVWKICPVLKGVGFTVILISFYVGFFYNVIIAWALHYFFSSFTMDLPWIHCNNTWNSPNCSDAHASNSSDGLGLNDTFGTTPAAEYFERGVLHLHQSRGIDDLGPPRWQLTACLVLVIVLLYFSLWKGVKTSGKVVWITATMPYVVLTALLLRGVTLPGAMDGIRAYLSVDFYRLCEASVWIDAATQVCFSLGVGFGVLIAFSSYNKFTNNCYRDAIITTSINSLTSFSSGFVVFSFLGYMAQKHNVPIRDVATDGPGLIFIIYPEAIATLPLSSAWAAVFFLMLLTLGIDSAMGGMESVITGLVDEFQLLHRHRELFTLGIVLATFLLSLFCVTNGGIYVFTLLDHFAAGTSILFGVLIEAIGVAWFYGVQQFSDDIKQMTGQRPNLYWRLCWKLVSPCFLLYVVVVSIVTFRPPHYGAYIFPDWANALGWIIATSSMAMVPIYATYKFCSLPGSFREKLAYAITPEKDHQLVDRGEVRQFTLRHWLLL

CC1NCCOC1c1ccccc1 (single isomer, unassigned; (+)) [(+)-Phenmetrazine]
EC50 [1]: 0.0874 ± 0.0078 µM | VMAT2 Release EC50 (μM) [2]: completely inactive | EC50 [2]: > 100 µM

c1ccc(CN2CCNCC2)cc1 [Benzylpiperazine]
EC50 ([1]; read-out: DAT Release EC50, mean ± SD, n=3, Table 5): 0.307 ± 0.019 µM | VMAT2 Release EC50 (μM) [2]: lack VMAT2 activity | EC50 [2]: > 100 µM

CC(NC(C)(C)C)C(=O)c1cccc(Cl)c1 (stereo not drawn) [Bupropion]
IC50 [3]: 0.658 ± 0.178 µM

Fc1ccc(C(O[C@H]2C[C@H]3CC[C@@H](C2)N3CC2CC2)c2ccc(F)cc2)cc1 [JHW013]
locomotor activity ([4]; fast-onset BZT analogs, ref Li et al., 2011): stimulant effects that were substantially reduced compared to those of cocaine

CCCCN1[C@@H]2CC[C@H]1CC(OC(c1ccc(F)cc1)c1ccc(F)cc1)C2 (stereo partly drawn) [JHW 007]
effect on cocaine-induced locomotor stimulation (mice [5]; CB1R wild-type and knockout mice, co-injection, ref Desai et al., 2014): significantly blunted the locomotor stimulant effects of cocaine | effect on cocaine-induced locomotor stimulation (mice [5]; DA D2R knockout and wild-type mice, ref Desai et al., 2014): blocked the stimulant effects of cocaine equally in both knockout and wild-type mice | modulation of CB1Rs (CB1Rs): positive-allosteric modulation of CB1Rs

CNC(C)Cc1ccc2c(c1)OCO2 (stereo not drawn) [MDMA]
DA Release EMAX [1]: 103 ± 2% | EC50 ([1]; read-out: DA Release EC50): 0.108 ± 0.01 µM

CCCC(C(=O)c1ccc2c(c1)OCO2)N1CCCC1 (stereo not drawn) [MDPV]
IC50 [3, 20]: 0.0041 ± 6e-05 µM

CNC(C)C(=O)c1ccc(C)cc1 (stereo not drawn) [Mephedrone]
EC50 [1]: 0.0491 ± 0.0031 µM

CN[C@@H](C)Cc1ccccc1 [Methamphetamine]
EC50 [1]: 0.0245 ± 0.0021 µM

CCNC(C)C(=O)c1ccccc1 (stereo not drawn) [N-Ethylpropion]
IC50 [6]: 1.01 ± 0.08 µM | EC50 (SERT [7]): 2.12 ± 0.098 µM

CCNC(C)Cc1ccccc1 (stereo not drawn) [PAL-99]
DA Release EMAX [1, 21]: 111 ± 13%

Cc1ccccc1N1CCNCC1 [PAL-169, 2-Methylphenylpiperazine]
DA Release EMAX [1, 21]: 90 ± 1% | EC50 [1, 22]: 0.296 ± 0.02 µM

Cc1cccc(N2CCNCC2)c1C [PAL-218, 2,3-Dimethylphenylpiperazine]
DA Release EMAX [1, 21]: 66 ± 1% | EC50 [1, 22]: 1.21 ± 0.118 µM

Cc1ccc(N2CCNCC2)cc1 [PAL-233, 4-Methylphenylpiperazine]
IC50 [3, 20]: 9.52 ± 0.436 µM

CC(N)Cc1ccc2ccccc2c1 (stereo not drawn) [PAL-287]
EC50 [2]: 1.25 ± 0.23 µM | DA release in vivo (microdialysis) (rats [8]): released much less DA than expected | locomotor stimulant effect ([4]; compared to amphetamine, ref Rothman et al., 2005): weak locomotor stimulant | reinforcing effects [9]: lacked strong reinforcing effects

CC(N)Cc1ccc(F)cc1 (stereo not drawn) [PAL-303]
DA/5-HT Ratio [1, 23]: 18 | EC50 [1, 24]: 0.0515 ± 0.0017 µM | EC50 (SERT [10]): 0.939 ± 0.076 µM

Cc1ccc(CC(C)N)cc1 (stereo not drawn) [PAL-313]
DA/5-HT Ratio [1, 23]: 1.2 | EC50 [1, 24]: 0.0441 ± 0.0026 µM | EC50 (SERT [10]): 0.0534 ± 0.0041 µM | extracellular (dialysate) DA in n. accumbens (rats [11]): lowest level of DA release in vivo | extracellular 5-HT in n. accumbens (rats [11]; Fig. 8): highest level of 5-HT release | locomotor stimulation (horizontal locomotor activity) (rats [12]): lowest levels of locomotor stimulation

Cc1cccc(CC(C)N)c1 (stereo not drawn) [PAL-314]
DA/5-HT Ratio [1, 23]: 6.5 | EC50 [1, 24]: 0.0333 ± 0.0013 µM | EC50 (SERT [10]): 0.218 ± 0.022 µM

CC(N)Cc1cccc(F)c1 (stereo not drawn) [PAL-353]
DA/5-HT Ratio [1, 23]: 80 | EC50 [1, 24]: 0.0242 ± 0.0011 µM | EC50 (SERT [10]): 1.94 ± 0.202 µM

CCCNC(C)C(=O)c1ccccc1 (stereo not drawn) [PAL-359]
DA UI IC50 (nM) ([3]; rat brain synaptosomes, mean ± SD, n=3 in triplicate, Table 1): inactive

CCN[C@@H](C)Cc1ccc2ccccc2c1 [PAL-1045]
DA Release EMAX [1, 21]: 78 ± 5% | EC50 [1, 22]: 0.046 ± 0.011 µM | extracellular (dialysate) DA in n. accumbens (rats [11]): extracellular DA concentrations increase; also recorded: magnitude of effect on dialysate DA is lower than that of a full efficacy releaser | locomotor stimulation (horizontal locomotor activity) (rats [12]): smaller when compared to the full efficacy releaser

CNC(C)Cc1ccc2ccccc2c1 (stereo not drawn) [PAL-1046]
DA Release EMAX [1, 21]: 101 ± 3% | EC50 [1, 22]: 0.01 ± 0.001 µM

NCCc1ccccc1 [Phenethylamine]
EC50 [1]: 0.0395 ± 0.0018 µM

CC(C)(N)Cc1ccccc1 [Phentermine]
EC50 [1]: 0.262 ± 0.021 µM | VMAT2 Release EC50 (μM) [2]: lack VMAT2 activity | EC50 [2]: > 100 µM

Cc1ccc(-c2cc([C@@H]3C4CCC(C[C@@H]3c3ccc(Cl)cc3)N4C)on2)cc1 (stereo partly drawn) [RTI-336]
effect on cocaine self-administration dose-effect curve (rats [13]): dose-related leftward shifts in the cocaine self-administration dose effect curve | self-administration of the compound versus vehicle (rats [14]): self-administered at levels greater than vehicle | substitution for cocaine (drug discrimination) (rats [15]): fully substitutes | affinity at sigma receptors (sigma receptors): relatively low affinity at sigma receptors

Cc1ccc([C@H]2C[C@@H]3CC[C@H]([C@H]2c2cc(-c4ccc(Cl)cc4)no2)N3C)cc1 [RTI-371, 3β-(4-methylphenyl)-2β-[3-(4-chlorophenyl)isoxazol-5-yl]tropane]
rate of displacement of [125I]RTI-121 (DAT): 0.320 %/min | effect on cocaine self-administration dose-effect curve (rats [13]): dose-related decreases in the maximum self-administration of cocaine | self-administration of the compound versus vehicle (rats [14]): not self-administered at rates above those obtained with vehicle | locomotor activity (mice [16]): failed to stimulate locomotor activity | effect on cocaine-induced locomotor stimulation (mice [5]; preliminary report, ref Navarro et al., 2009): blocked cocaine-induced locomotor stimulation | substitution for cocaine (drug discrimination) (rats [15]): did not substitute | modulation of CB1Rs (CB1Rs): positive-allosteric modulation of CB1Rs | affinity at sigma receptors (sigma receptors): relatively low affinity at sigma receptors

CN1[C@@H]2CC[C@H]1C[C@@H](OC(=O)C(CO)c1ccccc1)C2 (stereo partly drawn) [atropine]
effect on effects of cocaine in drug discrimination procedures (rats [17]): potentiation of effects of cocaine

COC(=O)[C@H]1[C@@H](OC(=O)c2ccccc2)C[C@@H]2CC[C@H]1N2C [cocaine]
loss in potency for Y335A compared with wild-type DAT (DAT Y335A): ~100 fold

NC(=O)C[S+]([O-])C(c1ccccc1)c1ccccc1 (stereo not drawn) [modafinil]
substitution for cocaine (drug discrimination) (mice [18]): fully substituted for cocaine | DA concentrations in the nucleus accumbens shell [19]: increased DA concentrations in the nucleus accumbens shell, though also to a lesser extent than cocaine | effect on cocaine-induced euphoria (human): blunted cocaine-induced euphoria | locomotor activity ([4]; ref Cao et al., 2010): stimulated locomotor activity, though to a lesser extent than cocaine

C[C@@H]1CN(CCCn2c3ccccc3c3ccccc32)C[C@H](C)N1 [rimcazole]
effect on cocaine self-administration (rats [13]; 2011): blocked cocaine self-administration

CN1[C@@H]2C[C@@H](OC(=O)[C@H](CO)c3ccccc3)C[C@H]1[C@@H]1O[C@@H]12 [scopolamine]
effect on effects of cocaine in drug discrimination procedures (rats [17]): potentiation of effects of cocaine
